Results as given in patent US5646128A, “Methods for treating adenosine kinase related conditions” (priority 1994, dated 1997).
“Also recorded” adds a separate entry of the source. Blank lines part the entries; values can stand above or below the compound they belong to.

Tests used:
E. coli LPS endotoxemia = test: Survival in endotoxemia (E. coli LPS) in mice; format: in vivo, Balb/C mice; conditions: 200 mg/kg i.p. 30 minutes prior to LPS and drug
Description: An adenosine kinase inhibitor (GP-1-515) was used to increase endogenous adenosine production in vivo.

TNF-α = test: Inhibition of TNF-alpha production in endotoxemic mice (ELISA); format: in vivo, Balb/C mice; conditions: 200 mg/kg i.p. 30 minutes prior to LPS and GP-1-515
Procedure: In these experiments, plasma TNF-α levels were measured in GP-1-515and placebo-treated mice (8 animals per group). Balb/C mice received an intravenous injection of E. coli LPS (900 ug/animal) (Sigma Chemical Co.) followed immediately by a second injection with 0.1 mg/kg of GP-1-515 or vehicle. Some animals were pretreated with an intraperitoneal injection of the adenosine receptor antagonist 8SPT. One hour later, blood was obtained from ether anesthetized animals by intracardiac puncture using a heparinized syringe. Blood samples were chilled on ice, centrifuged at 5000 rpm in a microcentrifuge for 5 minutes, and the plasma removed. TNF-α levels in the plasma were assayed by ELISA according to the instructions provided by the manufacturer (Endogen, Cambridge, Mass.).

[1] = test system: adenosine release, rat cardiomyocytes; conditions: cited from earlier work
[2] = Acute i.v. hemodynamics in the rat; format: in vivo, Sprague Dawley rats
Procedure: The ability of the adenosine kinase inhibitor GP-1-238 to show effects on blood pressure, heart rate or body temperature was compared in anesthetized and conscious rats. Sprague Dawley rats were anesthetized with pentobarbital and catheterized in the jugular vein and carotid artery. GP-1-238 (0.1-5 mg/kg/min) was infused intravenously in stepwise increments (0.2 mL/min×5 minutes). The experiments in conscious rats were conducted in the same manner after rats had been catheterized and allowed to recover for 2 days following surgery.

cardiac adenosine kinase = test: Inhibition of cardiac adenosine kinase in vivo; conditions: conscious rats, i.v.
adenosine kinase = molecular target: T1, adenosine kinase (Bos taurus, UniProt A0AAA9RZ79); test: Adenosine kinase inhibition in intact cells (capillary endothelial cells from bovine heart); format: cell-based; conditions: 20 μM 2'-deoxycoformycin, 5 μM [3H]adenosine
T1 construct: endogenous in cells; host or cells: capillary endothelial cells from bovine heart
T1 sequence (A0AAA9RZ79 1-362): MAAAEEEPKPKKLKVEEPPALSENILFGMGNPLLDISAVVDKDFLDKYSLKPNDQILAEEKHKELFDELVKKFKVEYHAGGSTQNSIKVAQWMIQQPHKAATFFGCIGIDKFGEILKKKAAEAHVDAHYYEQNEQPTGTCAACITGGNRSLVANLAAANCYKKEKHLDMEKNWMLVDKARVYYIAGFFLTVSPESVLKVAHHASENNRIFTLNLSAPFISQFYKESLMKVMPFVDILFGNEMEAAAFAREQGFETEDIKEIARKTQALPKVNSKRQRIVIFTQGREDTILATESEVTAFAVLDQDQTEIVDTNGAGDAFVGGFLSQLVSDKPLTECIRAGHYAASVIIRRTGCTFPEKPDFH
Procedure: Inhibition of adenosine kinase in intact cells was determined from the amount of incorporation of radioisotope from adenosine into the adenylates (AMP, ADP and ATP) in the presence of adenosine deaminase inhibition. […] The media was then discarded and the cells were treated with 50 μl 0.4M perchloric acid, centrifuged and the supernalants neutralized with 100 μl alanine: freon (1:4).

[3] = test system: fMLP-stimulated human neutrophils on human umbilical vein endothelial cells; test: Inhibition of neutrophil adherence to endothelial cells; format: cell-based; conditions: for inhibition of neutrophil adhesion to endothelial cells: fMLP-stimulated neutrophils, 2 hours, 37° C.; for effect of adenosine deaminase co-treatment on inhibition of neutrophil adhesion: with adenosine deaminase 0.125 U/mL
Procedure: The ability of an adenosine kinase inhibitor to affect neutrophil adherence to fibroblasts and endothelial cells was evaluated in a cell culture model. […] These incubations were carried out in the presence of fMLP-stimulated human neutrophils isolated from whole blood (1.25×10^6/mL) with or without adenosine deaminase (0.125 U/mL). At the end of the incubation, the medium was removed and the monolayers of fibroblasts or endothelial cells and adherent neutrophils were fixed by addition of formaldehyde (3.7%) and, after washing to remove non-adherent neutrophils, adherent neutrophils were stained with Weigart's hematoxylin and counted under a light microscope.

[4] = test system: Mycobacterium butyricum adjuvant arthritis; test: Adjuvant arthritis in rats; format: in vivo, Lewis rats
Procedure: Lewis rats received a single subcutaneous tail injection of 0.75 mg Mycobacterium butyricum mixed in paraffin oil on day 0. […] Hind paw volume was measured by Mercury displacement.

[5] = test system: adenosine uptake, rat brain slices; conditions: cited from earlier work
[6] = test system: adenosine uptake, guinea pig brain slices; conditions: cited from earlier work
[7] = mouse, in vivo; cited from earlier work
[8] = cited from earlier work
[9] = test system: adenosine release, isolated guinea pig hearts; conditions: cited from earlier work
[10] = molecular target: T2, purified pig heart adenosine kinase (Sus scrofa, UniProt A0A5G2R0F5); test: Inhibition of adenosine kinase activity (purified pig heart enzyme); format: biochemical
T2 construct: purified pig heart adenosine kinase; from tissue; host or cells: pig heart
T2 sequence (A0A5G2R0F5 1-362): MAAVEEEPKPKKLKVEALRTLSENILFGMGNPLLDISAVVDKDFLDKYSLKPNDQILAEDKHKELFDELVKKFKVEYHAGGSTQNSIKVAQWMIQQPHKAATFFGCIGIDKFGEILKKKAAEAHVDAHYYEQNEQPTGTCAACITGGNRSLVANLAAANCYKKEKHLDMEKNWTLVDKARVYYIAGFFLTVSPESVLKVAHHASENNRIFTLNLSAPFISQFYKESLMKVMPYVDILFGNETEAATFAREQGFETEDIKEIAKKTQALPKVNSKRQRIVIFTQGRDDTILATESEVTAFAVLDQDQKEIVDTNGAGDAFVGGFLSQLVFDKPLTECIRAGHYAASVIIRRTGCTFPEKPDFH
Procedure: Inhibition of enzyme activity was determined using a 0.1 mL assay mixture containing 50 mM Tris-maleate, pH 7.0, 0.1% (w/v) BSA, 1 mM ATP, 1 mM MgCl2, 0.5 μM [U-^14 C]adenosine (500 mCi/mmol) and 0.1 μg of purified pig heart adenosine kinase. Different concentrations of the test compounds were incubated in the assay mixture for 20 min. at 37° C. From each reaction mixture, 20 μl portions were removed and spotted on 2 cm^2 pieces of Whatman DE81 filter paper. […] The papers were dried, and [^14 C]AMP measured by scintillation counting.

[11] = conscious animals, doses greatly in excess of that required to inhibit cardiac adenosine kinase

Structure (SMILES): Cn1c(=O)c2[nH]c(-c3ccc(S(=O)(=O)O)cc3)nc2n(C)c1=O [8-p-sulphophenyltheophylline, reference compound]
effect on GP-1-515-induced protection (E. coli LPS endotoxemia): completely inhibited the protective effect of GP-1-515; also recorded: blocking the GP-1-515-induced protection
effect on GP-1-515-induced decrease of plasma TNF-α (TNF-α): The decrease was prevented

Structure (SMILES): OC[C@H]1O[C@@H](n2cnc3c2N=CNC[C@H]3O)C[C@@H]1O [2'-deoxycoformycin]
adenosine release from rat cardiomyocytes ([1]; ADA inhibition alone): no effect on adenosine release

Structure (SMILES): NC[C@H]1O[C@@H](n2cnc3c(N)ncnc32)[C@H](O)[C@@H]1O [GP-1-238]
effect on blood pressure, conscious animals [2, 11]: No effects were observed
effect on heart rate, conscious animals [2, 11]: No effects were observed
effect on temperature, conscious animals [2, 11]: No effects were observed
hemodynamic effects, conscious rats ([2]; i.v. infusion 0.1-5 mg/kg/min, conscious rats, in contrast to anesthetized animals): no hemodynamic effects were seen
inhibition of adenosine kinase in vivo (cardiac adenosine kinase): completely inhibited adenosine kinase in vivo

Structure (SMILES): C[C@H]1O[C@@H](n2nc(-c3ccccc3)c3c(Nc4ccccc4)ncnc32)[C@H](O)[C@@H]1O [GP-1-665]
IC50 (adenosine kinase): 4.5 nM

Structure (SMILES): C[C@H]1O[C@@H](n2cc(I)c3c(N)ncnc32)[C@H](O)[C@@H]1O [GP-1-456, 5'-deoxy-5-iodotubercidin]
inhibition of neutrophil adhesion to endothelial cells [3]: inhibit neutrophil adhesion to endothelial cells; also recorded: dose-dependent inhibition
effect of adenosine deaminase co-treatment on inhibition of neutrophil adhesion [3]: reversed by adenosine deaminase treatment; also recorded: reversal of this inhibition
reduction of hind paw edema ([4]; 3 mg/kg p.o.): significant reduction of hind paw edema
total mean hind paw edema ([4]; 3 mg/kg p.o. day 1 through 19, day 19, untreated 2.55±0.20, p<0.05): 1.41 ± 0.21 mL
adenosine uptake, rat brain slices [5]: inhibited
adenosine uptake, guinea pig brain slices [6]: inhibited
body temperature in mice [7]: hypothermia
flaccidity and locomotor activity in mice [7]: pronounced general flaccidity and much-reduced spontaneous locomotor activity
blood pressure and heart rate in anesthetized rats [8]: decrease blood pressure and heart rate

Structure (SMILES): NC[C@H]1O[C@@H](n2cnc3c(N)ncnc32)[C@H](O)[C@@H]1O [5'-amino-5'-deoxyadenosine]
increase in adenosine release from rat cardiomyocytes ([1]; inhibition of ADA together with adenosine kinase): 6 -fold
adenosine release, isolated guinea pig hearts, no ADA inhibition ([9]; absence of ADA inhibition): not apparent in the absence of ADA inhibition
increase of adenosine release, isolated guinea pig hearts ([9]; in the presence of EHNA): 15 -fold

Structure (SMILES): CNc1ncnc2c1ncn2[C@@H]1O[C@H](CN)[C@@H](O)[C@H]1O [GP-1-272]
inhibition of neutrophil adhesion to endothelial cells [3]: inhibit neutrophil adhesion to endothelial cells; also recorded: dose-dependent inhibition
effect of adenosine deaminase co-treatment on inhibition of neutrophil adhesion [3]: reversed by adenosine deaminase treatment; also recorded: reversal of this inhibition

IC50 [10]: < 10 nM
Structure (SMILES): OC[C@H]1O[C@@H](n2cc(-c3ccco3)c3c(Nc4ccccc4)ncnc32)[C@H](O)[C@@H]1O [GP-1-718]
